Results taken from article PMC8222254, “Self-assembly of an anion receptor with metal-dependent kinase inhibition and potent in vitro anti-cancer properties” (Nature Communications, 2021).
Several values for one entry are separate records, joined by “and”; a condition that tells them apart may be missing. Equal entries are not always repeated. Where two headings read alike, the source gives them in different places.

Columns and labels:
Experiment in all cases: Chemosensitivity, 96 h continuous exposure, MTT assay
Format in all cases: cell-based, human
[1] = system: A549; conditions: for IC50 / Selectivity indices relative to ARPE-19, Ratio + anion:no anion / Selectivity indices relative to MCF10A, Ratio + anion:no anion: A549; for Selectivity index (ARPE19): IC50 ARPE-19 / IC50 A549; for Selectivity index (MCF10A): IC50 MCF10A / IC50 A549; for Relative potency (+ anion to no anion), Ratio + anion:no anion: ratio of IC50, A549; for Selectivity indices relative to ARPE-19, Ratio + anion:no anion: ratio of SI (ARPE-19); for Selectivity indices relative to MCF10A, Ratio + anion:no anion: ratio of SI (MCF 10A)
Summary of the method: (§1)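 Cells were seeded overnight at 37 °C (2 × 10^3/well; GBM1 at 3 × 10^3/well on poly-L-ornithine/laminin in Neurobasal with hFGF/rhEGF), then exposed to compound concentration ranges for 96 h. Viability was read by MTT (4 h, formazan in DMSO, A540) and IC50 taken from dose–response curves.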

[2] = system: MCF10A non-cancer cells; conditions: for Relative potency (+ anion to no anion), Ratio + anion:no anion: ratio of IC50, MCF10A
Summary of the method: as §1

[3] = system: ARPE-19 non-cancer cells; conditions: for Relative potency (+ anion to no anion), Ratio + anion:no anion: ratio of IC50, ARPE-19
Summary of the method: as §1

[4] = system: HCT116 p53-/-; conditions: for IC50 / Selectivity indices relative to ARPE-19, Ratio + anion:no anion / Selectivity indices relative to MCF10A, Ratio + anion:no anion: HCT116 p53-/-; for Selectivity index (ARPE19): IC50 ARPE-19 / IC50 HCT116 p53-/-; for Selectivity index (MCF10A): IC50 MCF10A / IC50 HCT116 p53-/-; for Relative potency (+ anion to no anion), Ratio + anion:no anion: ratio of IC50, HCT116 p53-/-; for Selectivity indices relative to ARPE-19, Ratio + anion:no anion: ratio of SI (ARPE-19); for Selectivity indices relative to MCF10A, Ratio + anion:no anion: ratio of SI (MCF 10A)
Summary of the method: as §1

[5] = system: H460; conditions: for IC50 / Selectivity indices relative to ARPE-19, Ratio + anion:no anion / Selectivity indices relative to MCF10A, Ratio + anion:no anion: H460; for Selectivity index (ARPE19): IC50 ARPE-19 / IC50 H460; for Selectivity index (MCF10A): IC50 MCF10A / IC50 H460; for Relative potency (+ anion to no anion), Ratio + anion:no anion: ratio of IC50, H460; for Selectivity indices relative to ARPE-19, Ratio + anion:no anion: ratio of SI (ARPE-19); for Selectivity indices relative to MCF10A, Ratio + anion:no anion: ratio of SI (MCF 10A)
Summary of the method: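 IC50 is the concentration giving 50% growth reduction, derived from dose-response curves of MTT absorbance at 540 nm. Before dosing, lines were plated at 2 × 10^3 cells/well, GBM1 stem-like cells at 3 × 10^3/well, overnight at 37 °C; compound exposure lasted 96 h without interruption, vehicle 0.2% DMSO.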

[6] = system: HT-29; conditions: for Selectivity index (ARPE19): IC50 ARPE-19 / IC50 HT29; for Selectivity index (MCF10A): IC50 MCF10A / IC50 HT29; for Relative potency (+ anion to no anion), Ratio + anion:no anion: ratio of IC50, HT29; for Selectivity indices relative to ARPE-19, Ratio + anion:no anion: ratio of SI (ARPE-19); for Selectivity indices relative to MCF10A, Ratio + anion:no anion: ratio of SI (MCF 10A)
Summary of the method: as §1

[7] = system: HCT116 p53+/+; conditions: for IC50 / Selectivity indices relative to ARPE-19, Ratio + anion:no anion / Selectivity indices relative to MCF10A, Ratio + anion:no anion: HCT116 p53+/+; for Selectivity index (ARPE19): IC50 ARPE-19 / IC50 HCT116 p53+/+; for Selectivity index (MCF10A): IC50 MCF10A / IC50 HCT116 p53+/+; for Relative potency (+ anion to no anion), Ratio + anion:no anion: ratio of IC50, HCT116 p53+/+; for Selectivity indices relative to ARPE-19, Ratio + anion:no anion: ratio of SI (ARPE-19); for Selectivity indices relative to MCF10A, Ratio + anion:no anion: ratio of SI (MCF 10A)
Summary of the method: as §1

[8] = mean of replicates, read-out: Mean IC50
[9] = single replicate, read-out: IC50 values for each replicate
[10] = MCF10A non-cancer, read-out: Mean IC50 values
[11] = MCF10A, mean of replicates, read-out: Mean IC50
[12] = MCF10A, single replicate, read-out: IC50 values for each replicate
[13] = ARPE-19, mean of replicates, read-out: Mean IC50
[14] = ARPE-19, single replicate, read-out: IC50 values for each replicate
[15] = ARPE-19 non-cancer, read-out: Mean IC50 values
[16] = HT29, mean of replicates, read-out: Mean IC50
[17] = HT29, read-out: Mean IC50 values
[18] = HT-29, single replicate, read-out: IC50 values for each replicate

With O=S(=O)([O-])[O-].[Cu+2].[Cu+2].[Cu+2].c1ccc(-c2csc(NCCN(CCNc3nc(-c4ccccn4)cs3)CCNc3nc(-c4ccccn4)cs3)n2)nc1.c1ccc(-c2csc(NCCN(CCNc3nc(-c4ccccn4)cs3)CCNc3nc(-c4ccccn4)cs3)n2)nc1 [[L2Cu3(SO4)]4+] the IC50 [1, 8] was 680 nM, the IC50 ([1]; read-out: Mean IC50 values) was 680 nM and the IC50 [1, 9] was 747 nM and 620 nM and 667 nM and 685 nM. For the same compound, the “Selectivity index (ARPE19)” value [1] was 176.93, the “Selectivity index (MCF10A)” value [1] was 73.14 and the “Relative potency (+ anion to no anion), Ratio + anion:no anion” value (shortened to “Relative potency … Ratio + anion:no anion”) [1] was 2.92. The “Selectivity indices relative to ARPE-19, Ratio + anion:no anion” value [1] was 0.783, the “Selectivity indices relative to MCF10A, Ratio + anion:no anion” value [1] was 0.353 and the IC50 [2, 10] was 49700 nM. The IC50 [2, 11] was 49700 nM, the IC50 [2, 12] was 53200 nM and 42900 nM and 45100 nM and 57700 nM and the “Relative potency … Ratio + anion:no anion” value [2] was 1.03. For the same compound, the IC50 [3, 13] was 120000 nM, the IC50 [3, 14] was 126000 nM and 121000 nM and 113000 nM and the IC50 [3, 15] was 120000 nM. The “Relative potency … Ratio + anion:no anion” value [3] was 2.29, the IC50 ([4]; read-out: Mean IC50 values) was 78 nM and the IC50 [4, 9] was 78 nM and 77 nM and 79 nM. For the same compound, the “Selectivity index (ARPE19)” value [4] was 1542.44, the “Selectivity index (MCF10A)” value [4] was 637.59 and the “Relative potency … Ratio + anion:no anion” value [4] was 0.57. The “Selectivity indices relative to ARPE-19, Ratio + anion:no anion” value [4] was 4.015, the “Selectivity indices relative to MCF10A, Ratio + anion:no anion” value [4] was 1.810 and the IC50 [5, 8] was 252 nM. For the same compound, the IC50 ([5]; read-out: Mean IC50 values) was 252 nM, the IC50 [5, 9] was 438 nM and 207 nM and 188 nM and 219 nM and 227 nM and 234 nM and the “Selectivity index (ARPE19)” value [5] was 477.42. The “Selectivity index (MCF10A)” value [5] was 197.35, the “Relative potency … Ratio + anion:no anion” value [5] was 0.91 and the “Selectivity indices relative to ARPE-19, Ratio + anion:no anion” value [5] was 2.504. For the same compound, the “Selectivity indices relative to MCF10A, Ratio + anion:no anion” value [5] was 1.129, the IC50 [6, 16] was 188 nM and the IC50 [6, 17] was 188 nM. The IC50 [6, 18] was 88 nM and 240 nM and 182 nM, the “Selectivity index (ARPE19)” value [6] was 639.95 and the “Selectivity index (MCF10A)” value [6] was 264.53. The “Relative potency … Ratio + anion:no anion” value [6] was 0.88, the “Selectivity indices relative to ARPE-19, Ratio + anion:no anion” value ([6]; HT29) was 2.602 and the “Selectivity indices relative to MCF10A, Ratio + anion:no anion” value ([6]; HT29) was 1.173. The IC50 [7, 8] was 668 nM, the IC50 ([7]; read-out: Mean IC50 values) was 668 nM and the IC50 [7, 9] was 643 nM and 713 nM and 647 nM. For the same compound, the “Selectivity index (ARPE19)” value [7] was 180.10, the “Selectivity index (MCF10A)” value [7] was 74.45 and the “Relative potency … Ratio + anion:no anion” value [7] was 1.35. For the same compound, the “Selectivity indices relative to ARPE-19, Ratio + anion:no anion” value [7] was 1.697 and the “Selectivity indices relative to MCF10A, Ratio + anion:no anion” value [7] was 0.765.

In the case of O=S(=O)(O)O.[Zn+2].[Zn+2].[Zn+2].c1ccc(-c2csc(NCCN(CCNc3nc(-c4ccccn4)cs3)CCNc3nc(-c4ccccn4)cs3)n2)nc1.c1ccc(-c2csc(NCCN(CCNc3nc(-c4ccccn4)cs3)CCNc3nc(-c4ccccn4)cs3)n2)nc1 [[L2Zn3(SO4)]4+], the IC50 [1, 8] is reported as 582 nM, the IC50 ([1]; read-out: Mean IC50 values) is reported as 582 nM and the IC50 [1, 9] is reported as 263 nM and 588 nM and 773 nM and 704 nM. The “Selectivity index (ARPE19)” value [1] was 290.84, the “Selectivity index (MCF10A)” value [1] was 26.16 and the “Relative potency … Ratio + anion:no anion” value [1] was 1.44. The “Selectivity indices relative to ARPE-19, Ratio + anion:no anion” value [1] was 0.745, the “Selectivity indices relative to MCF10A, Ratio + anion:no anion” value [1] was 0.065 and the IC50 [2, 10] was 15200 nM. The IC50 [2, 11] was 15200 nM, the IC50 [2, 12] was 18.5 µM and 11.3 µM (2×) and 19.7 µM and the “Relative potency … Ratio + anion:no anion” value [2] was 0.09. For the same compound, the IC50 [3, 13] was 169000 nM, the IC50 [3, 14] was 182000 nM and 150000 nM and 176000 nM and the IC50 [3, 15] was 169000 nM. For the same compound, the “Relative potency … Ratio + anion:no anion” value [3] was 1.08, the IC50 [4, 8] was 61 nM and the IC50 ([4]; read-out: Mean IC50 values) was 61 nM. The IC50 [4, 9] was 59 nM and 64 nM and 61 nM, the “Selectivity index (ARPE19)” value [4] was 2774.92 and the “Selectivity index (MCF10A)” value [4] was 249.64. The “Relative potency … Ratio + anion:no anion” value [4] was 0.85, the “Selectivity indices relative to ARPE-19, Ratio + anion:no anion” value [4] was 1.271 and the “Selectivity indices relative to MCF10A, Ratio + anion:no anion” value [4] was 0.111. For the same compound, the IC50 [5, 8] was 233 nM, the IC50 ([5]; read-out: Mean IC50 values) was 233 nM and the IC50 [5, 9] was 189 nM and 262 nM and 250 nM. For the same compound, the “Selectivity index (ARPE19)” value [5] was 726.48, the “Selectivity index (MCF10A)” value [5] was 65.36 and the “Relative potency … Ratio + anion:no anion” value [5] was 0.65. The “Selectivity indices relative to ARPE-19, Ratio + anion:no anion” value [5] was 1.663, the “Selectivity indices relative to MCF10A, Ratio + anion:no anion” value [5] was 1.128 and the IC50 [6, 16] was 238 nM. The IC50 [6, 17] was 238 nM, the IC50 [6, 18] was 70 nM and 166 nM and 210 nM and 243 nM and 499 nM and the “Selectivity index (ARPE19)” value [6] was 711.22. The “Selectivity index (MCF10A)” value [6] was 63.98, the “Relative potency … Ratio + anion:no anion” value [6] was 1.41 and the “Selectivity indices relative to ARPE-19, Ratio + anion:no anion” value ([6]; HT29) was 0.764. For the same compound, the “Selectivity indices relative to MCF10A, Ratio + anion:no anion” value ([6]; HT29) was 0.067, the IC50 [7, 8] was 66 nM and the IC50 ([7]; read-out: Mean IC50 values) was 66 nM. The IC50 [7, 9] was 63 nM and 74 nM and 62 nM, the “Selectivity index (ARPE19)” value [7] was 2564.70 and the “Selectivity index (MCF10A)” value [7] was 230.73. The “Relative potency … Ratio + anion:no anion” value [7] was 0.14, the “Selectivity indices relative to ARPE-19, Ratio + anion:no anion” value [7] was 7.600 and the “Selectivity indices relative to MCF10A, Ratio + anion:no anion” value [7] was 0.665.
